Publication PMC11247118 (CPT: Pharmacometrics & Systems Pharmacology, 2024)
Like-named read-outs stand apart in the source and are kept apart here.

Assays:
[1] = system: Patient bacterial isolates (Gram-positive); assay: MIC of vancomycin for patient bacterial isolates; format: cell-based; details: majority of clinical isolates of the two study institutions, broth microdilution
Gram-positive bacteria = details: 29 of 180 cases with Gram-positive isolates detected
[2] = cited from earlier work
[3] = system: Gram-positive bacteria / MRSA; details: cited from earlier work
[4] = cited from earlier work; remark: listed apart in the source
[5] = Therapeutic drug monitoring of serum vancomycin concentrations; details: serum TDM samples, SD
[6] = Population pharmacokinetic model; details: for CLp, typical value of apparent clearance / Vp, typical value of apparent volume of distribution: estimate (% standard error), SEM
[7] = bootstrap of final model, 996/1000 runs successful

CN[C@H](CC(C)C)C(=O)N[C@H]1C(=O)N[C@@H](CC(N)=O)C(=O)N[C@H]2C(=O)N[C@H]3C(=O)N[C@H](C(=O)N[C@H](C(=O)O)c4cc(O)cc(O)c4-c4cc3ccc4O)[C@H](O)c3ccc(c(Cl)c3)Oc3cc2cc(c3O[C@@H]2O[C@H](CO)[C@@H](O)[C@H](O)[C@H]2O[C@H]2C[C@](C)(N)[C@H](O)[C@H](C)O2)Oc2ccc(cc2Cl)[C@H]1O [vancomycin]
MIC values of clinical isolates [1]: ≤ 1 µg/mL | treatment failure rate (Gram-positive bacteria): 16% | fraction eliminated by the renal system and excreted in the urine as a prototype ([2]; after intravenous administration): approximately 90% | inter-individual variability (IIV) of clearance (CL) ([2]; reported to reach as high as): ≤ 99.2% | known range of weight-adjusted CL in pediatric patients ([2]; summarized in a systematic review): 0.258 to 4.25 mL/min/kg | microbiological eradication rate ([3]; multicenter study, Chinese children, 37.79 ± 11.31 mg/kg/day): > 80% | overall clinical effective rate ([3]; pediatric patients with median AUC/MIC between 200 and 300, ref 40 (Shen et al.)): 92.6% | AUC0-24 threshold for predicting vancomycin-associated nephrotoxicity ([4]; Chinese children): < 537 µg·h/mL | AUC0-24 threshold for predicting vancomycin-associated nephrotoxicity ([4]; Chinese neonates): < 480 µg·h/mL | Vancomycin concentration, mean ± standard deviation ([5]; model validation dataset N = 67, 76 concentrations): 6.89 ± 2.63 mg/L | Vancomycin concentration, mean ± standard deviation ([5]; model-building dataset N1 = 210, 272 concentrations): 8.7 ± 6.0 mg/L | Vancomycin concentration, mean ± standard deviation ([5]; model-building dataset N2 = 176, 249 concentrations): 8.27 ± 5.85 mg/L | Vancomycin concentration, mean ± standard deviation ([5]; model-building dataset Total = 386, 521 concentrations): 8.52 ± 5.93 mg/L | CLage>2, bootstrap median [6, 7]: 2.56 L/h | CLage≤2, bootstrap median [6, 7]: 1.97 L/h | Vd, bootstrap median [6, 7]: 22.2 L | CLp, typical value of apparent clearance ([6]; candidate Model I, 3/4 allometric model): 2.09 (4.3) L/h | Vp, typical value of apparent volume of distribution ([6]; candidate Model I): 40.9 (14.6) L | CLp, typical value of apparent clearance ([6]; candidate Model II, allometric model): 2.10 (4.0) L/h | Vp, typical value of apparent volume of distribution ([6]; candidate Model II): 23.8 (28.2) L | Vp, typical value of apparent volume of distribution ([6]; candidate Model III): 40.8 (14.5) L | Vp, typical value of apparent volume of distribution ([6]; candidate Model IV): 23.0 (25.5) L | CLp, typical value of apparent clearance ([6]; candidate Model V, BW-dependent exponent model): 2.30 (5.0) L/h | Vp, typical value of apparent volume of distribution ([6]; candidate Model V): 23.3 (27.1) L | CLp, typical value of apparent clearance ([6]; candidate Model VI, age-dependent exponent model): 2.42 (5.5) L/h | Vp, typical value of apparent volume of distribution ([6]; candidate Model VI): 22.7 (25.5) L | weight-adjusted typical CL ([6]; final PPK model, age >2 years old): 3.6 mL/min/kg | CLage>2, final model estimate ([6]; final PPK model, age >2 years old, typical value at BW 12 kg and CLcr 75 mL/min): 2.59 L/h | weight-adjusted typical CL ([6]; final PPK model, age ≤2 years old): 2.75 mL/min/kg | CLage≤2, final model estimate ([6]; final PPK model, age ≤2 years old, typical value at BW 12 kg and CLcr 75 mL/min): 1.98 L/h | Vd, final model estimate ([6]; final PPK model, typical value at BW 12 kg): 22.4 L
